Active and inactive are the calls of the source. The calls are words filed in the database; no cut-off is given here.
Tests used:
[1] = Drug metabolism in mouse liver microsomes assessed as 6-chloro-1,2,3,4-tetrahydroacridin-9-amine formation at 5 uM measured up to 60 mins by UPLC-MS/MS analysis; format: ADME, Microsome; conditions: 1 h
[2] = Intrinsic clearance in mouse liver microsomes assessed per mg protein at 5 uM by UPLC-MS/MS analysis; format: ADME, Microsome; conditions: read-out: CLH
[3] = Stability in rat plasma assessed as parent compound remaining at 10 uM measured immediately by UPLC-MS/MS analysis; format: ADME, cell-free; conditions: read-out: Stabilty
[4] = Half life in mouse liver microsomes at 5 uM by UPLC-MS/MS analysis; format: ADME, Microsome
[5] = test system: Mus musculus; test: Antialzheimer activity in APP/PS1 double mutant-transgenic C57BL6/J mouse model assessed as increase in Adam10 gene expression at 10 mg/kg/day, ip for 4 weeks followed by compound washout and measured after 24 hrs by qPCR analysis; format: functional, organism-based
[6] = Drug metabolism in mouse liver microsomes assessed as N-[8-[(6-chloro-1,2,3,4-tetrahydroacridin-9-yl)amino]octyl]-3-hydroxy-5-(4-methoxy-3,6-dioxo-cyclohexa-1,4-dien-1-yl)-3-methyl-pentanamide formation at 5 uM measured up to 60 mins by UPLC-MS/MS analysis; format: ADME, Microsome; conditions: 1 h
[7] = molecular target: Cholinesterase (Homo sapiens, UniProt P06276)
Description: Inhibition of recombinant human BChE using butyrylthiocholine iodide as substrate preincubated for 15 mins followed by substrate addition by Ellman's method

[8] = Acute toxicity in C57BL6/J mouse assessed as tremor at 15 mg/kg, ip measured after 5 mins; format: organism-based; conditions: in vivo
[9] = Stability in rat plasma assessed as parent compound remaining at 10 uM measured after 180 mins by UPLC-MS/MS analysis; format: ADME, cell-free; conditions: read-out: Stabilty
[10] = in vitro; conditions: PAMPA
Description: Permeability of compound in PBS/EtOH buffer (7:3) PAMPA-BBB assay

[11] = Drug metabolism in rat liver microsomes assessed as N-[8-[(6-chloro-1,2,3,4-tetrahydroacridin-9-yl)amino]octyl]-3-hydroxy-5-(4-methoxy-3,6-dioxo-cyclohexa-1,4-dien-1-yl)-3-methyl-pentanamide formation at 5 uM measured up to 60 mins by UPLC-MS/MS analysis; format: ADME, Microsome; conditions: 1 h
[12] = test system: Mus musculus; test: Improvement in memory impairment in APP/PS1 double mutant-transgenic C57BL6/J mouse model assessed as […] at 10 mg/kg/day, ip for 4 weeks followed by compound washout by maze two-object recognition test; format: functional, organism-based
[13] = test system: Mus musculus; test: Antialzheimer activity in APP/PS1 double mutant-transgenic C57BL6/J mouse model assessed as reduction in soluble amyloid beta 40 level in cortex at 10 mg/kg/day, ip for 4 weeks followed by compound washout and measured after 24 hrs by ELISA; format: functional, organism-based
[14] = test system: Mus musculus; test: Antialzheimer activity in APP/PS1 double mutant-transgenic C57BL6/J mouse model assessed as reduction in soluble amyloid beta 42 level in cortex at 10 mg/kg/day, ip for 4 weeks followed by compound washout and measured after 24 hrs by ELISA; format: functional, organism-based
[15] = molecular target: Acetylcholinesterase (Homo sapiens, UniProt P22303)
Description: Inhibition of recombinant human AChE expressed in HEK293 cells using acetylthiocholine iodide as substrate preincubated for 15 mins followed by substrate addition by Ellman's method

[16] = Stability in mouse plasma assessed as parent compound remaining at 10 uM measured immediately by UPLC-MS/MS analysis; format: ADME, cell-free; conditions: read-out: Stabilty
[17] = Stability in mouse plasma assessed as parent compound remaining at 10 uM measured after 180 mins by UPLC-MS/MS analysis; format: ADME, cell-free; conditions: read-out: Stabilty
[18] = Drug metabolism in rat liver microsomes assessed as 6-chloro-1,2,3,4-tetrahydroacridin-9-amine formation at 5 uM measured up to 60 mins by UPLC-MS/MS analysis; format: ADME, Microsome; conditions: 1 h
[19] = Stability in human plasma assessed as parent compound remaining at 10 uM measured after 360 mins by UPLC-MS/MS analysis; format: ADME, cell-free; conditions: read-out: Stabilty
[20] = Half life in rat liver microsomes at 5 uM by UPLC-MS/MS analysis; format: ADME, Microsome
[21] = Stability in rat plasma assessed as parent compound remaining at 10 uM measured after 360 mins by UPLC-MS/MS analysis; format: ADME, cell-free; conditions: read-out: Stabilty
[22] = Drug metabolism in mouse liver microsomes assessed as N-[8-[(6-chloro-1,2,3,4-tetrahydroacridin-9-yl)amino]octyl]-5-(2,5-dihydroxy-4-methoxy-phenyl)-3-hydroxy-3-methyl-pentanamide formation at 5 uM measured up to 60 mins by UPLC-MS/MS analysis; format: ADME, Microsome; conditions: 1 h
[23] = Drug metabolism in mouse liver microsomes assessed as N-[8-[(6-chloro-1,2,3,4-tetrahydroacridin-9-yl)amino]octyl]-2-(8-methoxy-2-methyl-6,9-dioxo-1-oxaspiro[4.5]dec-7-en-2-yl)acetamide formation at 5 uM measured up to 60 mins by UPLC-MS/MS analysis; format: ADME, Microsome; conditions: 1 h
[24] = Acute toxicity in C57BL6/J mouse assessed as reduction in locomotor activity at 15 mg/kg, ip measured after 5 mins; format: organism-based; conditions: in vivo
[25] = Intrinsic clearance in rat liver microsomes assessed per mg protein at 5 uM by UPLC-MS/MS analysis; format: ADME, Microsome; conditions: read-out: CLH
[26] = Drug metabolism in human liver microsomes assessed as N-[8-[(6-chloro-1,2,3,4-tetrahydroacridin-9-yl)amino]octyl]-2-(8-methoxy-2-methyl-6,9-dioxo-1-oxaspiro[4.5]dec-7-en-2-yl)acetamide formation at 5 uM measured up to 60 mins by UPLC-MS/MS analysis; format: ADME, Microsome; conditions: 1 h
[27] = Acute toxicity in C57BL6/J mouse assessed as ptosis at 15 mg/kg, ip measured after 5 mins; format: organism-based; conditions: in vivo
[28] = Acute toxicity in C57BL6/J mouse assessed as piloerection at 15 mg/kg, ip measured after 5 mins; format: organism-based; conditions: in vivo
[29] = test system: Mus musculus; test: Antialzheimer activity in APP/PS1 double mutant-transgenic C57BL6/J mouse model assessed as effect on iNOS gene expression at 10 mg/kg/day, ip for 4 weeks followed by compound washout and measured after 24 hrs by qPCR analysis; format: functional, organism-based
[30] = Acute toxicity in C57BL6/J mouse at 15 mg/kg, ip measured after 3 hrs; format: organism-based; conditions: in vivo
[31] = Drug metabolism in rat liver microsomes assessed as N-[8-[(6-chloro-1,2,3,4-tetrahydroacridin-9-yl)amino]octyl]-5-(2,5-dihydroxy-4-methoxy-phenyl)-3-hydroxy-3-methyl-pentanamide formation at 5 uM measured up to 60 mins by UPLC-MS/MS analysis; format: ADME, Microsome; conditions: 1 h
[32] = test system: Mus musculus; test: Antialzheimer activity in APP/PS1 double mutant-transgenic C57BL6/J mouse model assessed as reduction in Bace1 gene expression at 10 mg/kg/day, ip for 4 weeks followed by compound washout and measured after 24 hrs by qPCR analysis; format: functional, organism-based
[33] = Intrinsic clearance in human liver microsomes assessed per mg protein at 5 uM by UPLC-MS/MS analysis; format: ADME, Microsome; conditions: read-out: CLH
[34] = Drug metabolism in human liver microsomes assessed as 6-chloro-1,2,3,4-tetrahydroacridin-9-amine formation at 5 uM measured up to 60 mins by UPLC-MS/MS analysis; format: ADME, Microsome; conditions: 1 h
[35] = test system: Mus musculus; test: Antialzheimer activity in APP/PS1 double mutant-transgenic C57BL6/J mouse model assessed as increase in Hmox1 gene expression at 10 mg/kg/day, ip for 4 weeks followed by compound washout and measured after 24 hrs by qPCR analysis; format: functional, organism-based
[36] = Stability in mouse plasma assessed as parent compound remaining at 10 uM measured after 60 mins by UPLC-MS/MS analysis; format: ADME, cell-free; conditions: read-out: Stabilty

Sequence of Cholinesterase (P06276 whole entry): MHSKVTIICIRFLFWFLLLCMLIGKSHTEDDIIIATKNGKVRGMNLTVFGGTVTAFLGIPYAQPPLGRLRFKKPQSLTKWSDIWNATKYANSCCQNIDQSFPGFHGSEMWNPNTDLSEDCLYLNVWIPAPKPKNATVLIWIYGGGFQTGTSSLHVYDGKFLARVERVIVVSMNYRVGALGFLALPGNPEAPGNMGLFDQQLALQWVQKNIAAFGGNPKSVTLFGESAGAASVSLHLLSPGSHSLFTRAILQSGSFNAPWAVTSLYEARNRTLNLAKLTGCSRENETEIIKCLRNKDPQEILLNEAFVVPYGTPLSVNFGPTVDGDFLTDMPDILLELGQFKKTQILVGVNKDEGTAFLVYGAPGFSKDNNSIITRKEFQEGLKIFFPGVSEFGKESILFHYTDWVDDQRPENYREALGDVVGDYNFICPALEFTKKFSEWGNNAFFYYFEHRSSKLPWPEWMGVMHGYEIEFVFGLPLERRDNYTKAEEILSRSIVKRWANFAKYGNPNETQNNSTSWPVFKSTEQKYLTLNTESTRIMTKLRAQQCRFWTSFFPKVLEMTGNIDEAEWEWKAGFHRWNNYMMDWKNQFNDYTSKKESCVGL
Sequence of Acetylcholinesterase (P22303 whole entry): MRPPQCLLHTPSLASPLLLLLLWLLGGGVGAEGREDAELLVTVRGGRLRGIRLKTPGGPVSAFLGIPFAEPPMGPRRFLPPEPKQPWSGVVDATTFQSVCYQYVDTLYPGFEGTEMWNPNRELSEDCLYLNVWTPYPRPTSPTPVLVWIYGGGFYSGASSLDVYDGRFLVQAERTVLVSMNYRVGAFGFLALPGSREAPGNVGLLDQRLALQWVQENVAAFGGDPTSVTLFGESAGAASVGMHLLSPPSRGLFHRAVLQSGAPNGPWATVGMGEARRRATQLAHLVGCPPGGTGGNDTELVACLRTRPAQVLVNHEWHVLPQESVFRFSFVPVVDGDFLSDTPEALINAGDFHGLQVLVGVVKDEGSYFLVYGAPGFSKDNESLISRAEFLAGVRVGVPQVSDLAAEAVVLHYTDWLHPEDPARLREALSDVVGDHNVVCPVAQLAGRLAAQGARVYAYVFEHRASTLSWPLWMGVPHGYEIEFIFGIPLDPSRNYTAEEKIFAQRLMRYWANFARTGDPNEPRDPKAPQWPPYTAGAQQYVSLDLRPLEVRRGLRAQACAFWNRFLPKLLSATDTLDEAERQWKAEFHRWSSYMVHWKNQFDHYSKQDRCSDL

In the case of `COc1cc2c(cc1O)CCC(C)(CC(=O)NCCCCCCCCNc1c3c(nc4cc(Cl)ccc14)CCCC3)O2` (stereo unspecified), the Drug metabolism [1] is reported as “Metabolite_Detected”, the microsomal CLint at 5 µM [2] is reported as 13.7 µL/min/mg and the remaining at 0 min, 10 µM [3] is reported as 100%. For the same compound, the half-life at 5 µM [4] was 50.5 min, the Activity [5] was “inactive” and the Drug metabolism [6] was “Metabolite_Detected”. The IC50 [7] was 170 nM, the Activity [8] was “Toxic” and the remaining at 3 h, 10 µM [9] was 100%. For the same compound, the Papp [10] was 9.6 ×10⁻⁶ cm/s, the Drug metabolism [11] was “Metabolite_Detected” and the Activity [12] was “inactive”. The Activity [13] was “inactive”, the Activity [14] was “inactive” and the IC50 [15] was 3.69 nM. For the same compound, the remaining at 0 min, 10 µM [16] was 100%, the remaining at 3 h, 10 µM [17] was 100% and the Drug metabolism [18] was “Metabolite_Detected”. It also gave a remaining at 6 h, 10 µM [19] of 100%, a half-life at 5 µM [20] of 42.4 min and a remaining at 6 h, 10 µM [21] of 98%. For the same compound, the Drug metabolism [22] was “Metabolite_Detected”, the Drug metabolism [23] was “Metabolite_Detected” and the Activity [24] was “Toxic”. The microsomal CLint at 5 µM [25] was 16.3 µL/min/mg, the Drug metabolism [26] was “Metabolite_Detected” and the Activity [27] was “Toxic”. For the same compound, the Activity [28] was “Toxic”, the Activity [29] was “inactive” and the Activity [30] was “Non-Toxic”. The Drug metabolism [31] was “Metabolite_Detected”, the Activity [32] was “Active” and the microsomal CLint at 5 µM [33] was 55.2 µL/min/mg. For the same compound, the Drug metabolism [34] was “Metabolite_Detected”, the Activity [35] was “Active” and the remaining at 1 h, 10 µM [36] was 100%.

Source: ChEMBL document CHEMBL4725294, “Centrally Active Multitarget Anti-Alzheimer Agents Derived from the Antioxidant Lead CR-6” (J Med Chem, 2020)
